In EP4711369A1, “1H-[1,2,3]TRIAZOLO[4,5-H]QUINAZOLINE COMPOUNDS AS PROTEIN KINASE INHIBITORS” (Chengdu Cynogen Bio-Pharmaceutical Technology Co., Ltd., priority 2023, dated 2024):

Tests used:
Test in all cases: Assay of kinase activity (ADP-Glo)
Type in all cases: biochemical
[1] = target: CDK6/cyclin D3 (Homo sapiens, UniProt Q00534); conditions: kinase inhibitory activity
How it was run: (§1)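 Human CDK6/cyclin D3 and CDK9/cyclin T1 preincubated 10 min at 25 °C with compound in 50 mM Hepes, 10 mM MgCl2, 0.01% Brij35, 2 mM DTT, then reacted 60 min at 25 °C with substrate and ATP. ADP formed measured by ADP-Glo luminescence; IC50 from nonlinear concentration-response fitting.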

[2] = target: CDK9/cyclin T1 (Homo sapiens, UniProt P50750); conditions: kinase inhibitory activity
Sequence of CDK9/cyclin T1 (P50750 whole entry, species assumed): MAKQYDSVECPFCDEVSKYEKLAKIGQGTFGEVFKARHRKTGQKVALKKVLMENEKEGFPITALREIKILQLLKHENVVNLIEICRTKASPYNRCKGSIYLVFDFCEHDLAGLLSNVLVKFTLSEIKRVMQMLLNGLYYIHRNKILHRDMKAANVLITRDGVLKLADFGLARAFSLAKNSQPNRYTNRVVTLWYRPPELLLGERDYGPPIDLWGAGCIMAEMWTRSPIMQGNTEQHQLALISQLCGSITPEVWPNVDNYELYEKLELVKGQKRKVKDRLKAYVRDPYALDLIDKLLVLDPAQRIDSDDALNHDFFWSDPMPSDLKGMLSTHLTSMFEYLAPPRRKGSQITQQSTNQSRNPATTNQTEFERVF
Sequence of CDK9/cyclin T1 (O60563 whole entry partner, species assumed): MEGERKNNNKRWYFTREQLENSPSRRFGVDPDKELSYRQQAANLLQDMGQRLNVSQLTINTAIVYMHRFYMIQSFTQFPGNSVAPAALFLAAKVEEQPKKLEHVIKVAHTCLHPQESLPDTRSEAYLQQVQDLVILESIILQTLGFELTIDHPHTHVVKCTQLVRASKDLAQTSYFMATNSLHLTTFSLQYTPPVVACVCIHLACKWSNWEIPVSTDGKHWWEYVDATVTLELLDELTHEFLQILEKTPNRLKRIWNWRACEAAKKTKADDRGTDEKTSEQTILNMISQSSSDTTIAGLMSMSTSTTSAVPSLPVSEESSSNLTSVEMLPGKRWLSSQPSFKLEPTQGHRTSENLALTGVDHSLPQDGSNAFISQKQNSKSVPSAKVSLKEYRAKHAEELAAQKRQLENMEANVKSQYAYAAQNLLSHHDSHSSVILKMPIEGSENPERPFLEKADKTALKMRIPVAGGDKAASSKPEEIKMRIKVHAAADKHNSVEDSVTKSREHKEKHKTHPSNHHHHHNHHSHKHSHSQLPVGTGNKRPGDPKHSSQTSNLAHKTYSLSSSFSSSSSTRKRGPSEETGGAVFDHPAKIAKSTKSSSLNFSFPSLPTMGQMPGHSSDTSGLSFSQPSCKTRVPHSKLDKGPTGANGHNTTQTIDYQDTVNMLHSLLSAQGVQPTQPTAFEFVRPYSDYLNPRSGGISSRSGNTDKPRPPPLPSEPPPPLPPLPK
How it was run: as §1

[3] = target: CDK2/cyclin E (Homo sapiens, UniProt P24941); conditions: kinase inhibitory activity, read-out: CDK2/E1 IC50
How it was run: (§2)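 Kinase preincubated 10 min with compound in 50 mM Hepes, 10 mM MgCl2, 0.01% Brij35, 2 mM DTT, then substrate/ATP added for 60 min at 25 °C. ADP formed measured by ADP-Glo luminescence; IC50 by nonlinear concentration-response fitting.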

[4] = target: CDK4/cyclin D1 (Homo sapiens, UniProt P11802); conditions: kinase inhibitory activity
Sequence of CDK4/cyclin D1 (P11802 whole entry, species assumed): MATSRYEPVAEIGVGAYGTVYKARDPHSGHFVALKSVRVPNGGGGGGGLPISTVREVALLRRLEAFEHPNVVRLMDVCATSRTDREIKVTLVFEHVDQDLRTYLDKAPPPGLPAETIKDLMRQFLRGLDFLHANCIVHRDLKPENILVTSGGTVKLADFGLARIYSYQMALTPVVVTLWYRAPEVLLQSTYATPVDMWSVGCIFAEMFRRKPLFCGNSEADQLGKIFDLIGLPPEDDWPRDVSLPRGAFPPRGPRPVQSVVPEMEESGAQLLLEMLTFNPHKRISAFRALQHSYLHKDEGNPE
Sequence of CDK4/cyclin D1 (P24385 whole entry partner, species assumed): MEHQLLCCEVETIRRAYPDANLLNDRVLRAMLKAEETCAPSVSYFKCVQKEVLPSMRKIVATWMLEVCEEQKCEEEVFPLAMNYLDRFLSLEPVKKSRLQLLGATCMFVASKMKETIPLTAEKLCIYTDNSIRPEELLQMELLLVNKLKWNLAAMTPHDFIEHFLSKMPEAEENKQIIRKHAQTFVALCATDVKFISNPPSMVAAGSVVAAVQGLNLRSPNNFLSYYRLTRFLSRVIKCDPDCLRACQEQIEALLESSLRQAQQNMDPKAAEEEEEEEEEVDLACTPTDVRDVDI
How it was run: as §2

Sequence of CDK6/cyclin D3 (Q00534 whole entry, species assumed): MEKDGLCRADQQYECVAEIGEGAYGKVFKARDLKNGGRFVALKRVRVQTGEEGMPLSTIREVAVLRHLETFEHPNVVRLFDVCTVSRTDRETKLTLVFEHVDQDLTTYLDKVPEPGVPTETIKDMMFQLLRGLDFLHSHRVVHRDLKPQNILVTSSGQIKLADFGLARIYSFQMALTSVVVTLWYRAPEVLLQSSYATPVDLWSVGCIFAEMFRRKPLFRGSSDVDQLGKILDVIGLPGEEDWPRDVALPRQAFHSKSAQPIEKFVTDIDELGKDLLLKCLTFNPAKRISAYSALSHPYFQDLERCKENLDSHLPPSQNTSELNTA
Sequence of CDK6/cyclin D3 (P30281 whole entry partner, species assumed): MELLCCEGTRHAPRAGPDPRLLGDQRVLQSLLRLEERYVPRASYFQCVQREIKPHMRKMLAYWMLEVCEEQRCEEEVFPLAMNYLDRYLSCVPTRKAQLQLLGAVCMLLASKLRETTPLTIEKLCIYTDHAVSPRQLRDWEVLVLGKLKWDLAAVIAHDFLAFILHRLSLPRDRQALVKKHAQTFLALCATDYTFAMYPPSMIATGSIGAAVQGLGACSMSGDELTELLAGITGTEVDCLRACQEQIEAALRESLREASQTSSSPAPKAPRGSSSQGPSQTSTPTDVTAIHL

IC50 [1]: 4 nM | IC50 [2]: 2 nM | IC50 [3]: 0.1 nM | IC50 [4]: 0.6 nM
SMILES: CC(C)n1nnc2ccc3cnc(Nc4ccc(C(=O)N5CC[C@H](N(C)C)C5)cc4)nc3c21 [Example I-10, (S)-(3-(Dimethylamino)pyrrolidin-1-yl)(4-((1-isopropyl-1H-[1,2,3]triazolo[4,5-H]quinazolin-8-yl)amino)phenyl)metha none]
